pIC50: −log10 of the molar value. “Also recorded” adds a separate entry of the source.
How the values were obtained:
15-LO = 15-LO (UniProt P12530); assay type: biochemical
Protocol: IC50's may be determined by standard methods. One particular method is a colorimetric assay in which the putative inhibitor is pre-incubated with the 15-LO enzyme for about 10 minutes followed by addition of linoleic acid substrate for an additional 10 minutes. The product, 13-HPODE, is quantitated by coupling the reduction of the hydroperoxylated lipid to the oxidation on N-benzoyl-leucomethylene blue in the presence of hemin at pH 5. The absorbance of the oxidized methylene blue is directly proportional to the amount of 13-HPODE formed by the 15-LO, and can be measured in the presence and absence of inhibitor.

[1] = test system: ovariectomized (Ovx) rats; assay: Estrogen deficiency Rat OVX osteopenia assay, BMD; assay type: in vivo
Protocol: In order to determine the ability of inhibitors of 15-lipoxygenase to stimulate bone formation and bone accretion, [[[5-(5,6-difluoro-1H-indol-2-yl)-2-methoxyphenyl]amino]sulfonyl]-carbamic acid-isobutyl ester, Compound 6, was prepared as described in WO0196298 ) and tested in the standard estrogen deficiency Rat OVX osteopenia assay.
Three month old rats are ovariectomized (Ovx) and administered 1 mg/kg/day Compound 6 or 0.1 ug/kg/day 1,25-dihydroxy vitamin D3 (positive control, abbreviated Vit. D in Table) by oral gavage once a day starting at 2 weeks post-ovariectomy and continuing for 7 weeks. The dose was increased to 2 mg/kg/day and continued until 11 weeks. Control groups, both sham (rats that were not ovariectomized) and Ovx, received vehicle only. The bone mineral density of the spine and right hip was determined by using the High Resolution Software package on a QDR-4500 Bone Densitometer^□ (Hologic, Walthan, Mass.). The animals were scanned by placing them in a supine position such that the right femur was perpendicular to the main body and the tibia was perpendicular to the femur. […]

[2] = test system: human mesenchymal stem cells (hMSC); assay: Alkaline phosphatase activity in hMSC cultures induced to differentiate into osteoblasts; assay type: cell-based; settings: for normalized activity of alkaline phosphatase: hMSC, second experimental set, inhibitors added on Day 1 or Day 11, FIG. 6; for alkaline phosphatase activity: hMSC cultured 9 days with 5-LO inhibitors, relative to DMSO, FIG. 8
Protocol: (§1) In order to determine the ability of inhibitors of 15-lipoxygenase to stimulate bone formation and bone accretion, the ability of the 15-LO inhibitors to promote measures of differentiation of stem cells into bone forming cells (osteoblasts) was tested in vitro.
(§2) Four to eight independent replicate cultures were prepared at each dose level. At the end of the experiments, the cultured cells were harvested by scraping the wells into the appropriate medium for further analysis of either alkaline phosphatase (Sigma kit#104-LL), or cellular calcium (Sigma kit#587-M). Cultures harvested for alkaline phosphatase assessment were harvested by scraping the cells and resuspending into 250 μL Tris buffered 0.1% Triton X-100, and then assayed either fresh or following freeze-thaw. Separate cultures to be assayed for total calcium content were scraped and resuspended into 250 μL 0.5M HCL. Results of these assays were normalized to total cellular DNA, thereby normalizing for differences in cell proliferation. At the same times that cultures were harvested for alkaline phosphatase and calcium, separate replicate cultures were harvested by scraping the cells and resuspending them in 250 μL Hank's Balanced Salt Solution, and cellular number assessed by DNA (DNeasy Tissue Kit, Qiagen cat#69506).
[…] Three different sets of experiments were performed.
The plates were cultured for 14 days. The DNA-normalized activity of alkaline phosphatase is plotted in FIG. 5.
(§3) Inhibitors were added either on Day 1 or Day 11. […] The normalized activity of alkaline phosphatase and calcium content is plotted in FIGS. 6 and 7, respectively.
(§4) As a control for the specificity of 15-LO inhibition for the induction of osteoblast differentiation of stem cells in vitro, the third set of experiments studied eight replicates of standard lipoxygenase inhibitors recognized as more specific to the 5-LO enzyme, rather than the 15-LO enzyme. Zileuton (1,10, 50 uM, prepared at Roche as) Compound 5, AA-861 (1, 10, 50 uM, Sigma #A371 1) and Rev-5901 (15 uM, Sigma #R5523) were prepared fresh every 2-3 days and tested in the human osteoblast precursor cells.

Lck-IL4 transgenic mice = assay: Lck-IL4 transgenic mouse model of osteoporosis: whole body and femoral bone parameters; assay type: in vivo; settings: Lck-IL4 mice fed Compound 2 150 mg/kg bid in food 84 days vs untreated Lck-IL4 controls
Protocol: The ability of 15-lipoxygenase inhibitors to promote bone formation in vivo was assessed by measuring the ability of the inhibitors to improve bone parameters in a mouse model of osteoporosis. Constitutive expression of an Interleukin-4 transgene from the Lck gene promoter (Lck-IL4) in C57BL/6 mice results in a severe bone phenotype mimicking osteoporosis.
Mice were permitted access to one-half the daily food intake twice daily at approximately 12 h intervals and diet intake was monitored daily. Water was available ad libitum. The control groups received the same diet without Compound 2. All groups consumed food equally well over the course of the experiment. […]
Bone mineral measurements were determined by dual energy X-ray absorptiometry (DEXA). […]
The cross-sectional geometric parameters of the mid-diaphysis of the femora were determined using a portable x-ray microtomograph (Model 1074, Skyscan, Antwerp, Belgium). Scans were taken at […] intervals, and a slice located at the midpoint of the femur was analyzed for total area (FCSA), cortical area (Ct Ar) and medullary canal area (Ma Ar). In addition, using the pixels contained in the cortical region of the digital image, the radius from the centroid of the cross-section to the outer fiber in the anterior-posterior plane, the areal moment of inertia (Ixx) in the plane of bending and the average cortical thickness (Ct Th) were calculated. […]

[3] = test system: human mesenchymal stem cells (hMSC); assay: Total calcium content of hMSC cultures induced to differentiate into osteoblasts; assay type: cell-based; settings: for calcium content: hMSC, second experimental set, inhibitors added on Day 1 or Day 11, FIG. 7; for culture calcium deposition (total calcium content): hMSC cultured 16 days with 5-LO inhibitors, relative to DMSO or 1,25-Vitamin D3, FIG. 9
Protocol: as §1, §2, §3, §4

[4] = 3 weeks treatment, 1 mg/kg/day oral gavage
[5] = 7 weeks treatment, 1 mg/kg/day oral gavage
[6] = 11 weeks treatment, dose increased to 2 mg/kg/day after 7 weeks, oral gavage
[7] = 7 weeks treatment, 0.1 ug/kg/day oral gavage (positive control)

15-LO, sequence (P12530 whole entry): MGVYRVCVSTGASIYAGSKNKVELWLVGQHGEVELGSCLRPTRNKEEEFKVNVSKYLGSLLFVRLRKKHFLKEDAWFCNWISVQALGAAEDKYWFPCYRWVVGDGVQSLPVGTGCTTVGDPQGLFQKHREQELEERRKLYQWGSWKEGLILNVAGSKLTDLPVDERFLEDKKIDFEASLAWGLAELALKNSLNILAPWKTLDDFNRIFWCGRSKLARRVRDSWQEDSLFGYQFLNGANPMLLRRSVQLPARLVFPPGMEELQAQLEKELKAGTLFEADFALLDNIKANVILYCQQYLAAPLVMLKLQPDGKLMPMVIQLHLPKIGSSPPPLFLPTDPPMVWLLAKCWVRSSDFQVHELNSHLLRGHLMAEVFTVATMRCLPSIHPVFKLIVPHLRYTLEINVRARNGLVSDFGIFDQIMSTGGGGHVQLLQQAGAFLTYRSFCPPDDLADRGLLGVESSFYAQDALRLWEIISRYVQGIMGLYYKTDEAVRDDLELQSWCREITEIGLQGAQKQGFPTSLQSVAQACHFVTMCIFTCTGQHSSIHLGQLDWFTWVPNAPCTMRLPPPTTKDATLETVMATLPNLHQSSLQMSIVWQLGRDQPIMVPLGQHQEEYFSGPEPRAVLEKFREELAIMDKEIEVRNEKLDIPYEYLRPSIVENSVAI

Q: With `COc1ccc(-c2cc3cc(F)c(F)cc3[nH]2)cc1NS(=O)(=O)NC(=O)OCC(C)C` [Compound 6, [[[5-(5,6-difluoro-1H-indol-2-yl)-2-methoxyphenyl]amino]sulfonyl]-carbamic acid-isobutyl ester] as the compound, how does the pIC50 (15-LO) read?
A: 7.08 to 7.60

Q: And the “BMD Lumbar Spine L2-L4” value [1, 4]?
A: 0.2347 (0.055) gm mineral/cm^2

Q: And the “BMD Lumbar Spine L5” value [1, 4]?
A: 0.2480 gm mineral/cm^2

Q: And the “BMD Proximal Femur” value [1, 4]?
A: 0.2838 (0.103) gm mineral/cm^2

Q: And the “BMD Lumbar Spine L2-L4” value [1, 5]?
A: 0.2474 (0.019) gm mineral/cm^2

Q: What about the “BMD Lumbar Spine L5” value [1, 5] of the same compound?
A: 0.2549 gm mineral/cm^2

Q: And the “BMD Proximal Femur” value [1, 5]?
A: 0.2932 (0.033) gm mineral/cm^2

Q: What about the “BMD Lumbar Spine L2-L4” value [1, 6] of the same compound?
A: 0.2507 (0.009) gm mineral/cm^2

Q: And the “BMD Lumbar Spine L5” value [1, 6]?
A: 0.2626 gm mineral/cm^2

Q: And the “BMD Proximal Femur” value [1, 6]?
A: 0.2986 (0.039) gm mineral/cm^2

Q: What about the “BMD in the spine” value ([1]; at >3 weeks, result in words) of the same compound?
A: increased BMD

Q: And the “BMD in the proximal femur” value ([1]; at >7 weeks, result in words)?
A: increased BMD

Q: What does the source list for `c1ccc2c(c1)SCc1c-2[nH]c2ccccc12` [Compound 2, 6,11-dihydro-5-thia-11-aza-benzo[a]fluorene]?
A: normalized activity of alkaline phosphatase [2]: most effective when added on Day 1; Femoral Marrow area (Lck-IL4 transgenic mice): −7%; Femoral Total area (Lck-IL4 transgenic mice): −4%; calcium content [3]: most effective when added on Day 1

Q: `COc1ccc(C(=O)Nc2ccc(Cl)c(Cl)c2)cc1N` [Compound 3, 3-amino-N-(3,4-dichlorophenyl)-4-methoxybenzamide] was tested. Which pIC50 (15-LO) did it give?
A: ~8.00

Q: What about the “normalized activity of alkaline phosphatase” value [2] of the same compound?
A: most effective when added on Day 11

Q: And the calcium content [3]?
A: most effective when added on Day 11

Q: How did the alkaline phosphatase activity [2] turn out when `CCCCCC(O)c1cccc(OCc2ccc3ccccc3n2)c1` (stereo not drawn) [Rev-5901] was run?
A: lack ability to induce; also recorded: lack of a response

Q: What about the “culture calcium deposition (total calcium content)” value [3] of the same compound?
A: lack ability to induce; also recorded: lack of a response

Q: What does the source list for `CC(c1cc2ccccc2s1)N(O)C(N)=O` (stereo not drawn) [Compound 5, Zilueton]?
A: IC50 for 15-LO (15-LO; result in words): negative control; alkaline phosphatase activity ([2]; listed as Zileuton): lack ability to induce; also recorded: lack of a response; culture calcium deposition (total calcium content) ([3]; listed as Zileuton): lack ability to induce; also recorded: lack of a response

Q: With `CCCCCCC#Cc1ccccc1/C=C/C(=O)O` [Compound 4, trans-3-(2-oct-1-ynyl-phenyl)-acrylic acid] as the compound, how does the pIC50 (15-LO) read?
A: 5.52 to 6.00

Q: Which results are given for `C=C1/C(=C\C=C2/CCC[C@]3(C)[C@@H]([C@H](C)CCCC(C)(C)O)CC[C@@H]23)C[C@@H](O)C[C@@H]1O` [Vit D, 1,25-dihydroxy vitamin D3, reference compound]?
A: BMD Lumbar Spine L2-L4 [1, 7]: 0.2628 (0.023) gm mineral/cm^2; BMD Lumbar Spine L5 [1, 7]: 0.2742 gm mineral/cm^2

— patent US20030175680A1, “Methods of treating and preventing bone loss” (priority 2002, published 2003)
